Values of other authors in patent US20060024236A1, “Bowel preparation for virtual colonoscopy” (priority 2004, published 2006).

What was measured:
[1] = compared with PEG, cleansing before CC, meta-analysis of trials
[2] = compared with PEG

Row | Compound | opacification of residual colonic fluid (oral) | tagging of residual fecal material to distinguish it from true colonic polyps (oral, given as part of the colon prep) | interference with subsequent CC examination (orally administered) | efficacy of colonic cleansing [1] | tolerability of oral cleansing agent [1] | residual colonic fluid at VC [2]
1 | O=S(=O)([O-])[O-].[Ba+2] [barium sulfate] | does not adequately opacify | effective | does not interfere |  |  | 
2 | O=P(O)(O)O [NaP, sodium phosphate] |  |  |  | more efficacious | better tolerated | significantly less residual colonic fluid
